Results published in publication PMC7496096, “Functional Characterisation of ClpP Mutations Conferring Resistance to Acyldepsipeptide Antibiotics in Firmicutes” (Chembiochem, 2020).
Values after ≈ are worked out from the molar mass of the structure shown.

Key:
S. pneumoniae G9A = format: cell-based, Streptococcus pneumoniae; conditions: broth microdilution, Mueller-Hinton broth; wildtype
Experimental: (§1) Determination of antibacterial activity: ADEP1 was purified from the culture supernatant of S. hawaiiensis NRRL 15010 as described.4 ADEPs 2, 4, 7, 9 were custom synthesised by EMC Microcollections, Tübingen, or provided by AiCuris, Wuppertal, Germany. The minimal inhibitory concentration (MIC) was determined by broth microdilution in Mueller‐Hinton broth (without cation adjustment) according to the guidelines of the Clinical Laboratory Standards Institute (CLSI).69 The inoculum was set to 5×10^4 CFU mL^−1 to allow some distance to the determined spontaneous resistance frequencies. […] All other ADEPs were used from DMSO stock solutions kept at −20 °C.

S. aureus RC8 = format: cell-based, Staphylococcus aureus; conditions: resistant clone of S. aureus ATCC 29213; Δ107 nt, C-terminal truncation
Experimental: as §1
(§2) Screening for ADEP‐resistant mutants and determination of resistance rates: Single colonies of wild‐type strains grown on Mueller‐Hinton agar plates overnight were suspended in sterile saline and a final inoculum of 5×10^6 cells was spread on plates supplemented with different ADEP congeners at 4× and 10× the MIC. For B. subtilis strain 3xclpP, ADEP7‐containing Mueller‐Hinton agar plates were additionally supplemented with 1 mM IPTG. Resistant colonies were counted after 24 h at 37 °C and colonies were randomly chosen for MIC determinations and sequencing. Mutations in the clpP gene of the respective isolated mutants were analysed by amplifying the clpP gene (and upstream promoter region) by PCR and sequencing of the resulting PCR amplicons (LGC genomics). Sequencing data were analysed by using SnapGene software (GSL Biotech).

S. aureus RC14 = format: cell-based, Staphylococcus aureus; conditions: resistant clone of S. aureus ATCC 29213; ClpP I91→T; A96→V (ClpP core; β3, β4)
Experimental: as §1, §2

S. aureus RC13 = format: cell-based, Staphylococcus aureus; conditions: resistant clone of S. aureus ATCC 29213; ClpP G68→V (ClpP core)
Experimental: as §1, §2

S. aureus RC1 = format: cell-based, Staphylococcus aureus; conditions: resistant clone of S. aureus 133; ClpP Q132→H, oligomerisation sensor
Experimental: as §1, §2

S. aureus RC18 = format: cell-based, Staphylococcus aureus; conditions: resistant clone of S. aureus ATCC 29213; ClpP R23→P, N-terminal gate
Experimental: as §1, §2

S. aureus RC17 = format: cell-based, Staphylococcus aureus; conditions: resistant clone of S. aureus ATCC 29213; ClpP A133→V, ring-ring interaction
Experimental: as §1, §2

S. aureus RC16 = format: cell-based, Staphylococcus aureus; conditions: resistant clone of S. aureus ATCC 29213; ClpP A114→T (ClpP core; β5)
Experimental: as §1, §2

S. aureus RC7 = format: cell-based, Staphylococcus aureus; conditions: resistant clone of S. aureus ATCC 29213; ClpP Q89→STOP, premature stop
Experimental: as §1, §2

S. aureus RC10 = format: cell-based, Staphylococcus aureus; conditions: resistant clone of S. aureus ATCC 29213; ClpP I165→M (equatorial interface; α6)
Experimental: as §1, §2

S. aureus RC3 = format: cell-based, Staphylococcus aureus; conditions: resistant clone of S. aureus 133; ClpP A133→T, ring-ring interaction
Experimental: as §1, §2

wild-type SaClpP [1] = experiment: Suc-LY-AMC peptide degradation by ADEP-activated ClpP; format: biochemical, Staphylococcus aureus; conditions: 1 μM SaClpP, 100 μM Suc-LY-AMC, 32 °C, 15 min pre-incubation; Figure 6B
Experimental: (§3) Peptide and protein degradation assays: Degradation assays with the fluorogenic peptide substrate Suc‐Leu‐Tyr‐7‐amino‐4‐methylcoumarin (Suc‐LY‐AMC) were performed in either BsClpP (50 mM Tris‐HCl, 25 mM MgCl2, 200 mM KCl, 2 mM DTT, pH 8) or SaClpP activity buffer (100 mM HEPES pH 7, 100 mM NaCl) in black, flat‐bottom‐96‐well plates (Sarstedt) with a total reaction volume of 100 μl and reaction temperatures of 32 °C and 37 °C for SaClpP and BsClpP, respectively. Purified ClpP proteins (final concentrations as indicated in the respective experiments) and ADEP2 (applied in 1 μl from a DMSO stock solution) were mixed and pre‐incubated for 15 min at reaction temperatures. […] Fluorophore release upon peptide hydrolysis was read out in a Tecan Infinite M200Pro plate reader (excitation/emission: 380/460 nm) every 30–60 s for 1 h. […] SaClpP (1 μM) and ADEP2 (concentrations as indicated) were pre‐incubated at 32 °C for 15 min before initiating the reaction by addition of FITC – casein (20 μM final concentration) and fluorescence readout (excitation/emission: 485/535 nm). In both assays, enzyme velocity was determined by linear regression of the initial segment of the fluorescence‐time plot in GraphPad Prism 5. […] Decrease of fluorescence was monitored at an emission wavelength of 535 nm in white, flat‐bottom 96‐well‐plates (Greiner). […]

B. subtilis 168 = experiment: microbe, parasite or virus in culture; format: cell-based, Bacillus subtilis; conditions: broth microdilution, Mueller-Hinton broth (without cation adjustment), CLSI, inoculum 5×10^4 CFU mL^−1; wild type
Experimental: as §1

wild-type SaClpP [2] = experiment: FITC-casein degradation by ADEP-activated ClpP; format: biochemical, Staphylococcus aureus; conditions: 1 μM SaClpP, 20 μM FITC-casein, 32 °C; Figure 6D
Experimental: as §3

## C[C@@H]1C[C@H]2C(=O)OC[C@H](NC(=O)[C@H](Cc3cc(F)cc(F)c3)NC(=O)CCC3CCCCC3)C(=O)N3CCC[C@H]3C(=O)N3CCCC[C@H]3C(=O)N[C@@H](C)C(=O)N2C1 [ADEP2]
S. pneumoniae G9A
  MIC: ≤0.063 µg/mL
S. aureus RC8
  MIC: >64 µg/mL
S. aureus RC14
  MIC: >64 µg/mL
S. aureus RC13
  MIC: >64 µg/mL
S. aureus RC1
  MIC: 8 µg/mL (≈ 10 µM)
S. aureus RC18
  MIC: >64 µg/mL
S. aureus RC17
  MIC: >64 µg/mL
S. aureus RC16
  MIC: >64 µg/mL
S. aureus RC7
  MIC: >64 µg/mL
S. aureus RC10
  MIC: >64 µg/mL
S. aureus RC3
  MIC: >64 µg/mL
wild-type SaClpP [1]
  concentration sufficient for full catalytic stimulation (Suc-LY-AMC degradation): 3 µM
B. subtilis 168
  MIC: ≤0.031 µg/mL
wild-type SaClpP [2]
  concentration sufficient for an almost maximal casein degradation rate: 3 µM
